One test concerns the target T1, Human DYRK1B (Homo sapiens, UniProt Q9Y463).
T1 construct: purchased Invitrogen PR8350B (former PV4649)
The experiment in a line: DYRK1B Kinase TR-FRET (IMAP-Tb) Assay. The test is classed as biochemical. As to conditions: TR-FRET (IMAP-Tb); ATP 70 μM; 37° C. 60 minutes; read-out: Enzyme IC50 (μM) DYRK1B. Background: In TR-FRET formats the signal depends on donor and acceptor labels being close together.

A further test has as its target T2, Human DYRK1A (Homo sapiens, UniProt Q13627).
T2 construct: purchased Invitrogen PV3997
Kind of test: DYRK1A Kinase TR-FRET (IMAP-Tb) Assay. As to conditions: TR-FRET (IMAP-Tb); ATP 70 μM; 37° C. 60 minutes; read-out: Enzyme IC50 (μM) DYRK1A. The test is classed as biochemical. In outline:
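Recombinant human DYRK1A phosphorylated fluorescent substrate peptide (1.0 μM) with ATP in 10 mM HEPES pH 7.0, 50 mM NaCl, 5 mM MgCl2, 1 mM DTT, 1 mM NaVO4, 0.02% BSA for 60 min at 37 °C. Phosphopeptide detected by IMAP terbium TR-FRET; IC50 reported.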

The subject of test [1] is SW620 human colon cancer cells. Kind of test: SW620 Cell Viability Assay. Format: cell-based. As to conditions: Homo sapiens, SW-620, 96 h, CellTiter-Glo; 4 days incubation; read-out: Cellular EC50 (μM) SW620. In outline:
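SW620 human colon cancer cells, some attached 24 h then serum-starved 48 h before dosing; compounds prepared in serum-supplemented medium. Cells incubated with compound 4 days at 37 °C, 5% CO2, and viability measured by CellTiter-Glo luminescence.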
A general note: ATP-based viability assays read luminescence as a measure of living cells.

Molecules are shown by their SMILES. Where a name gives a salt, the structure may show the parent alone. Where only a bound is given, the exact number is not on record here.

T1 sequence (Q9Y463 whole entry): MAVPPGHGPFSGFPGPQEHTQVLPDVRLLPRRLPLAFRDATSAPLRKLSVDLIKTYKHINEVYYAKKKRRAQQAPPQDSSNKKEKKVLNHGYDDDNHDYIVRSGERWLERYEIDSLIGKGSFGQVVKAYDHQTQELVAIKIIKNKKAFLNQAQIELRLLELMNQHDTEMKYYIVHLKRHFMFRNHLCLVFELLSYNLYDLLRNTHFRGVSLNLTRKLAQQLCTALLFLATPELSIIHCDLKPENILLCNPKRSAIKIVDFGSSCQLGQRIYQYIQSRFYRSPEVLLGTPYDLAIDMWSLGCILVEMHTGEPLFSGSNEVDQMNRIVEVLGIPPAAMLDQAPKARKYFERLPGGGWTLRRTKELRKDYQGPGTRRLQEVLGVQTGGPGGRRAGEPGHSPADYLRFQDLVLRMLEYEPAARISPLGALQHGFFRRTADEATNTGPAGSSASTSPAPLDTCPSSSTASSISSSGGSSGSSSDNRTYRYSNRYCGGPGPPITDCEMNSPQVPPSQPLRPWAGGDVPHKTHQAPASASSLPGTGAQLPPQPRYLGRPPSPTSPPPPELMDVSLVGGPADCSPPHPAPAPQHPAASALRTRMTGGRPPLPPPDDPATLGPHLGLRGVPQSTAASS

What is called IC50 is the concentration that inhibits the measured activity by half. The EC50 is the concentration giving half of the maximal effect. Regarding `O=C(NCc1cccc(Cl)c1)c1ccc(Cl)c(NC(=O)c2cc3cnc(NC4CCNCC4)nc3[nH]c2=O)c1` [Example 125, N-(2-Chloro-5-(3-chlorobenzylcarbamoyl)phenyl)-7-oxo-2-(piperidin-4-ylamino)-7,8-dihydropyrido[2,3-d]pyrimidine-6-carboxamide hydrochloride], the IC50 at Human DYRK1B worked out at 0.206 µM; at Human DYRK1A it was 0.0303 µM. In test [1], the EC50 amounted to 1.5 µM.

As for `O=C(NCc1cccc(Cl)c1)c1ccc(Cl)c(NC(=O)c2cc3cnc(NCC(O)CO)nc3[nH]c2=O)c1` (stereo not drawn) [Example 126, N-(2-Chloro-5-(3-chlorobenzylcarbamoyl)phenyl)-2-(2,3-dihydroxypropylamino)-7-oxo-7,8-dihydropyrido[2,3-d]pyrimidine-6-carboxamide], the IC50 worked out at 0.059 µM at Human DYRK1B and 0.0197 µM on Human DYRK1A. In addition, the EC50 in test [1] was above 10 µM.

In the case of `CC(C)(O)CNc1ncc2cc(C(=O)Nc3cc(C(=O)NCc4cccc(Cl)c4)ccc3Cl)c(=O)[nH]c2n1` [Example 127, N-(2-Chloro-5-(3-chlorobenzylcarbamoyl)phenyl)-2-(2-hydroxy-2-methylpropylamino)-7-oxo-7,8-dihydropyrido[2,3-d]pyrimidine-6-carboxamide], the IC50 was 0.086 µM on Human DYRK1B and 0.0223 µM at Human DYRK1A. The EC50 in test [1] was determined as 0.165 µM.

For the compound `COc1ncc2cc(C(=O)Nc3cc(C(=O)N[C@@H](CN)c4cccc(Cl)c4)ccc3Cl)c(=O)[nH]c2n1` [Example 134, 2-Methoxy-7-oxo-7,8-dihydro-pyrido[2,3-d]pyrimidine-6-carboxylic acid {5-[(R)-2-amino-1-(3-chloro-phenyl)-ethylcarbamoyl]-2-chloro-phenyl}-amide], the results for the IC50 on Human DYRK1B and at Human DYRK1A were 1.98 µM and 0.481 µM, respectively. Also, in test [1], the EC50 was determined as 7.57 µM.

As to `COc1ncc2cc(C(=O)Nc3cc(C(=O)N[C@H](CN)c4cccc(Cl)c4)ccc3Cl)c(=O)[nH]c2n1` [Example 135, 2-Methoxy-7-oxo-7,8-dihydro-pyrido[2,3-d]pyrimidine-6-carboxylic acid {5-[(S)-2-amino-1-(3-chloro-phenyl)-ethylcarbamoyl]-2-chloro-phenyl}-amide], the IC50 at Human DYRK1B was 0.0457 µM; at Human DYRK1A it was 0.0109 µM. Moreover, the 50% effective concentration (EC50) in test [1] is 0.523 µM.

Consider `NCC(NC(=O)c1ccc(Cl)c(NC(=O)c2cc3cnc(N4CCC(N)CC4)nc3[nH]c2=O)c1)c1ccccc1` (stereo not drawn) [Example 138, N-(5-(2-Amino-1-phenylethylcarbamoyl)-2-chlorophenyl)-2-(4-aminopiperidin-1-yl)-7-oxo-7,8-dihydropyrido[2,3-d]pyrimidine-6-carboxamide hydrochloride], for which the IC50 on Human DYRK1B stood at 0.0319 µM; on Human DYRK1A, 0.0184 µM. Besides, the EC50 in test [1] was found to be 2.9 µM.

For `CN1CCN(CCNc2ncc3cc(C(=O)Nc4cc(C(=O)NC(CN)c5ccccc5)ccc4Cl)c(=O)[nH]c3n2)CC1` (stereo not drawn) [Example 139, N-(5-(2-Amino-1-phenylethylcarbamoyl)-2-chlorophenyl)-2-(2-(4-methylpiperazin-1-yl)ethylamino)-7-oxo-7,8-dihydropyrido[2,3-d]pyrimidine-6-carboxamide hydrochloride], the values for the IC50 on Human DYRK1B and on Human DYRK1A were 0.019 µM and 0.006 µM, respectively. Moreover, the EC50 in test [1] was 0.396 µM.

With `CSc1ncc2cc(C(=O)Nc3cc(C(=O)NC(CO)c4ccccc4)ccc3Cl)c(=O)[nH]c2n1` (stereo not drawn) [Example 140, N-(2-Chloro-5-(2-hydroxy-1-phenylethylcarbamoyl)phenyl)-2-(methylthio)-7-oxo-7,8-dihydropyrido[2,3-d]pyrimidine-6-carboxamide], the IC50 at Human DYRK1B was 0.17 µM; at Human DYRK1A, 0.073 µM. The EC50 in test [1] came to 3.07 µM.

Regarding `CSc1ncc2cc(C(=O)Nc3cc(C(=O)NC(CCO)c4ccccc4)ccc3Cl)c(=O)[nH]c2n1` (stereo not drawn) [Example 141, N-(2-Chloro-5-(3-hydroxy-1-phenylpropylcarbamoyl)phenyl)-2-(methylthio)-7-oxo-7,8-dihydropyrido[2,3-d]pyrimidine-6-carboxamide], the IC50 at Human DYRK1B came to 0.12 µM; on Human DYRK1A it was 0.101 µM. The EC50 in test [1] was 2.39 µM.

On to `NC1CCN(c2ncc3cc(C(=O)Nc4cc(C(=O)NC(CO)c5ccccc5)ccc4Cl)c(=O)[nH]c3n2)CC1` (stereo not drawn) [Example 147, 2-(4-Aminopiperidin-1-yl)-N-(2-chloro-5-(2-hydroxy-1-phenylethylcarbamoyl)phenyl)-7-oxo-7,8-dihydropyrido[2,3-d]pyrimidine-6-carboxamide hydrochloride], for which the IC50 at Human DYRK1B was 0.483 µM; at Human DYRK1A, 0.194 µM. In test [1], the EC50 amounted to 1.44 µM.

On to `NC1CCN(c2ncc3cc(C(=O)Nc4cc(C(=O)NC(CCO)c5ccccc5)ccc4Cl)c(=O)[nH]c3n2)CC1` (stereo not drawn) [Example 148, 2-(4-Aminopiperidin-1-yl)-N-(2-chloro-5-(3-hydroxy-1-phenylpropylcarbamoyl)phenyl)-7-oxo-7,8-dihydropyrido[2,3-d]pyrimidine-6-carboxamide hydrochloride], for which the IC50 at Human DYRK1B was 0.321 µM; at Human DYRK1A it was 0.15 µM. Moreover, in test [1], the EC50 amounted to 0.069 µM.

On to `NCC(NC(=O)c1ccc(Cl)c(NC(=O)c2cc3cncnc3[nH]c2=O)c1)c1ccccc1` (stereo not drawn) [Example 151, N-(5-(2-Amino-1-phenylethylcarbamoyl)-2-chlorophenyl)-7-oxo-7,8-dihydropyrido[2,3-d]pyrimidine-6-carboxamide hydrochloride], for which the IC50 at Human DYRK1B is 0.096 µM; on Human DYRK1A it was 0.061 µM. Besides, the EC50 in test [1] turned out to be 4.26 µM.

On to `NCCC(NC(=O)c1ccc(Cl)c(NC(=O)c2cc3cncnc3[nH]c2=O)c1)c1ccccc1` (stereo not drawn) [Example 152, N-(5-(3-Amino-1-phenylpropylcarbamoyl)-2-chlorophenyl)-7-oxo-7,8-dihydropyrido[2,3-d]pyrimidine-6-carboxamide hydrochloride], for which the IC50 at Human DYRK1B was determined as 0.033 µM; on Human DYRK1A, 0.066 µM. The EC50 in test [1] came to 2.68 µM.

Take `COc1ncc2cc(C(=O)Nc3cc(C(=O)N[C@H](CCO)c4ccccc4)ccc3Cl)c(=O)[nH]c2n1` [Example 158, (R)—N-(2-Chloro-5-(3-hydroxy-1-phenylpropylcarbamoyl)phenyl)-2-methoxy-7-oxo-7,8-dihydropyrido[2,3-d]pyrimidine-6-carboxamide]: the IC50 on Human DYRK1B was 0.082 µM; at Human DYRK1A, 0.037 µM. Further, in test [1], the EC50 is 1.71 µM.

Take `NCCC(NC(=O)c1cc(NC(=O)c2cc3cnc(N4CCOCC4)nc3[nH]c2=O)c(Cl)cc1F)c1cccc(Cl)c1` (stereo not drawn) [Example 160, 2-Morpholin-4-yl-7-oxo-7,8-dihydro-pyrido[2,3-d]pyrimidine-6-carboxylic acid {5-[3-amino-1-(3-chloro-phenyl)-propylcarbamoyl]-2-chloro-4-fluoro-phenyl}-amide]: the IC50 on Human DYRK1B turned out to be 0.0932 µM; on Human DYRK1A it was 0.0532 µM. In addition, in test [1], the EC50 worked out at 0.219 µM.

As for `O=C(NCc1cccc(F)c1)c1ccc(Cl)c(NC(=O)c2cc3cnc(N4CCOCC4)nc3[nH]c2=O)c1` [Example 161, 2-Morpholin-4-yl-7-oxo-7,8-dihydro-pyrido[2,3-d]pyrimidine-6-carboxylic acid [2-chloro-5-(3-fluoro-benzylcarbamoyl)-phenyl]-amide], the IC50 on Human DYRK1B was 0.0472 µM; at Human DYRK1A it was 0.0462 µM. Besides, in test [1], the concentration for a half-maximal effect (EC50) was above 10 µM.

Turning to `O=C(NCc1cccc(F)c1)c1cc(NC(=O)c2cc3cnc(N4CCOCC4)nc3[nH]c2=O)c(Cl)cc1F` [Example 162, 2-Morpholin-4-yl-7-oxo-7,8-dihydro-pyrido[2,3-d]pyrimidine-6-carboxylic acid [2-chloro-4-fluoro-5-(3-fluoro-benzylcarbamoyl)-phenyl]-amide], the IC50 on Human DYRK1B is 0.135 µM; at Human DYRK1A, 0.0432 µM. Moreover, the half-maximal effective concentration (EC50) in test [1] is above 10 µM.

`COc1ncc2cc(C(=O)Nc3cc(C(=O)NCCC(N)=O)ccc3Cl)c(=O)[nH]c2n1` [Example 167, N-(5-(3-Amino-3-oxopropylcarbamoyl)-2-chlorophenyl)-2-methoxy-7-oxo-7,8-dihydropyrido[2,3-d]pyrimidine-6-carboxamide]: the IC50 at Human DYRK1B came out at 0.769 µM; at Human DYRK1A, 0.338 µM. Also, in test [1], the EC50 is above 10 µM.

As to `COc1nc(C)c2cc(C(=O)Nc3cc(C(=O)NC(CN)c4ccccc4)ccc3Cl)c(=O)[nH]c2n1` (stereo not drawn) [Example 170, N-(5-(2-Amino-1-phenylethylcarbamoyl)-2-chlorophenyl)-2-methoxy-4-methyl-7-oxo-7,8-dihydropyrido[2,3-d]pyrimidine-6-carboxamide 2,2,2-trifluoroacetate], the IC50 at Human DYRK1B amounted to 0.117 µM; at Human DYRK1A it was 0.0164 µM. Moreover, the EC50 in test [1] is 3.21 µM.

With `CN1CCN(c2ncc3cc(C(=O)Nc4cc(C(=O)NCc5ccccc5)ccc4Cl)c(=O)[nH]c3n2)CC1` [Example 172, 2-(4-Methyl-piperazin-1-yl)-7-oxo-7,8-dihydro-pyrido[2,3-d]pyrimidine-6-carboxylic acid (5-benzylcarbamoyl-2-chloro-phenyl)-amide], the IC50 at Human DYRK1B came to 0.208 µM; at Human DYRK1A it was 0.109 µM. The EC50 in test [1] is 0.49 µM.

In the case of `C[C@@H](NC(=O)c1ccc(Cl)c(NC(=O)c2cc3cnc(N4CCN(C)CC4)nc3[nH]c2=O)c1)c1ccccc1` [Example 174, 2-(4-Methyl-piperazin-1-yl)-7-oxo-7,8-dihydro-pyrido[2,3-d]pyrimidine-6-carboxylic acid [2-chloro-5-((R)-1-phenyl-ethylcarbamoyl)-phenyl]-amide], the IC50 at Human DYRK1B was determined as 0.207 µM; at Human DYRK1A it was 0.0873 µM. In test [1], the EC50 stood at 0.512 µM.

Source of the values: patent publication US20120184542A1, “PYRIDO PYRIMIDINES” (priority 2011, published 2012).
